Our source for the IC50 values is patent publication US20250154154A1 (Relay Binney Street, 2nd Floor, priority 2020, published 2025).

Experiment [1] deals with SRC (Homo sapiens, UniProt P12931). Description: SRC Biochemical Assay Protocol (microfluidic mobility shift assay, FLPeptide4 substrate). The procedure, abridged: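 Mobility-shift readout of phosphorylated FLPeptide4 (1.5 μM) after 90 min kinase reaction with 50 μM ATP and 0.26 nM SRC in pH 7.4 HEPES buffer. Compounds, tested 0.0017–100 μM, were preincubated 30 min with enzyme and peptide; IC50 from 4-parameter logistic fit versus neutral controls.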
SRC, sequence (P12931 whole entry, species assumed): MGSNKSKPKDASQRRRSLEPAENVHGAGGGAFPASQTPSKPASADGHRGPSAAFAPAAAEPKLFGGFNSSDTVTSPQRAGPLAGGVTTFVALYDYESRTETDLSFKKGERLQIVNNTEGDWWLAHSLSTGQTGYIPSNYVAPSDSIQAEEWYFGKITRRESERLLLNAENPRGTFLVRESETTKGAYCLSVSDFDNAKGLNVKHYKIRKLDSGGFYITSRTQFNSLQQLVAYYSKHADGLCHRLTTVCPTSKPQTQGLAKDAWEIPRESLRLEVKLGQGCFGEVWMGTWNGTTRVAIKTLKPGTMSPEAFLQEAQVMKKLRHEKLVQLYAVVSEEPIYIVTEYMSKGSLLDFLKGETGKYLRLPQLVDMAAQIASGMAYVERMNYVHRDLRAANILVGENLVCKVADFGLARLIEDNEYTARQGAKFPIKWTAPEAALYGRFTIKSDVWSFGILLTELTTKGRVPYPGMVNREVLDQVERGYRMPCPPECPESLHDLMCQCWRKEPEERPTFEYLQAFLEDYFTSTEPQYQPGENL

The subject of experiment [2] is RBE cells. Briefly: Cell Viability Protocol (CellTiterGlo), RBE cells. The format is cell-based. The conditions noted are these: RBE or SNU-1079 cells, 72 or 120 hour, cell line and time not given. In a few lines: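 After 72 h or 120 h compound exposure at 37° C, viability was read by CellTiterGlo as % of DMSO vehicle, with IC50 fitted by a 4-parameter curve. Cells had been seeded at 1200/well in 10% FBS RPMI 1640 and allowed 24 h before dosing.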
In general terms: ATP-based viability assays read luminescence as a measure of living cells.

Experiment [3] deals with phospho-S6RP (Ser 235/236) in RBE cells. Description: Cellular Proliferation Protocol (cellular phospho-S6RP HTRF), RBE cells. The format is cell-based. The conditions noted are these: 6 hours treatment, RBE or SNU-1079 cells, cell line not given. The procedure, abridged: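 Phospho-S6RP (Ser 235/236) was quantified by HTRF in lysed RBE cells (2000/well) after a 6 h treatment at 37° C, with overnight antibody incubation at room temperature. IC50 values came from 4-parameter dose-response fits relative to DMSO vehicle.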
On the technique in general: In TR-FRET formats the signal depends on donor and acceptor labels being close together.

Usually IC50 stands for the concentration that gives 50% inhibition. With `C=CC(=O)N1C[C@@H]2[C@@H](C#Cc3c(-c4ccc(F)c5c4OCO5)c4c(N)ncnc4n3C)[C@@H]2C1` [II-130], the IC50 in experiment [1] is at most 10 nM; in experiment [2], 10 to 1000 nM; in experiment [3] it was 10 to 1000 nM.

With `C=CC(=O)N1CCC(N2CC(C#Cc3c(-c4ccc(Cl)c(OC)n4)c4c(N)ncnc4n3C)C2)CC1` [II-324], the IC50 in experiment [1], in experiment [2] and in experiment [3] was 10 to 1000 nM each time.

On to `C=CC(=O)N1CCC(N2CC(F)(C#Cc3c(-c4ccc(Oc5ccccc5)c(OC)c4)c4c(N)ncnc4n3C)C2)CC1` [II-246, 1-(4-(3-((4-amino-5-(3-methoxy-4-phenoxyphenyl)-7-methyl-7H-pyrrolo[2,3-d]pyrimidin-6-yl)ethynyl)-3-fluoroazetidin-1-yl)piperidin-1-yl)prop-2-en-1-one], for which the IC50 is 10 to 1000 nM in experiment [1], at most 10 nM in experiment [2] and 10 to 1000 nM in experiment [3] (6 h).

On to `C=CC(=O)N1CCC(N2CC(C#Cc3c(-c4ccc(Oc5cccc(C)n5)c(OC)c4)c4c(N)nccc4n3C)C2)CC1` [II-80], for which the IC50 in experiment [1] lay within 1000 to 10000 nM; in experiment [2], 10 to 1000 nM; in experiment [3] it was 1000 to 10000 nM.

`C=CC(=O)N1CC[C@@H](N2CC(C#Cc3c(-c4ccc(Cl)c(OC)c4)c4c(N)ncnc4n3CCOC)C2)[C@@H](O)C1` [II-56]: the concentration for half-maximal inhibition (IC50) in experiment [1], in experiment [2] and in experiment [3] was 10 to 1000 nM each time.

In the case of `C=CC(=O)N1C[C@@H]2[C@@H](C#Cc3c(-c4ccc(Oc5cccc(C)n5)c5c4OCO5)c4c(N)ncnc4n3C)[C@@H]2C1` [II-135], the half-inhibitory concentration (IC50) in experiment [1], in experiment [2] and in experiment [3] was 10 to 1000 nM in each case.

As to `C=CC(=O)N1CCC(N2CC(C#Cc3c(-c4ccc(Oc5ccccc5)c(Cl)n4)c4c(N)ncnc4n3C)C2)CC1` [II-314], the concentration for half-maximal inhibition (IC50) in experiment [1] is above 10000 nM; in experiment [2], 10 to 1000 nM; in experiment [3], 10 to 1000 nM.

For `C=CC(=O)N1CC2C(C#Cc3c(-c4cccc5c4OC(F)(F)O5)c4c(N)ncnc4n3C)C2C1` (stereo not drawn) [II-129], the concentration for half-maximal inhibition (IC50) lay in the range of 1000 to 10000 nM in experiment [1], 10 to 1000 nM in experiment [2] and 1000 to 10000 nM in experiment [3].

Turning to `C=CC(=O)N1CCC(N2CC(C#Cc3c(-c4ccc(Oc5ccccc5)cc4)c4c(N)ncnc4n3CCOC)C2)CC1` [II-189, 1-(4-(3-((4-amino-7-(2-methoxyethyl)-5-(4-phenoxyphenyl)-7H-pyrrolo[2,3-d]pyrimidin-6-yl)ethynyl)azetidin-1-yl)piperidin-1-yl)prop-2-en-1-one], the IC50 lay within 10 to 1000 nM in experiment [1], 1000 to 10000 nM in experiment [2] and 1000 to 10000 nM in experiment [3] (6 h).

`C=CC(=O)N1CCC(N2CC(C#Cc3c(-c4ccc(Oc5ccccc5)c(OC)c4)c4c(N)ncnc4n3C)C2)C[C@H]1CO` (stereo partly drawn) [II-248, 1-((2S)-4-(3-((4-amino-5-(3-methoxy-4-phenoxyphenyl)-7-methyl-7H-pyrrolo[2,3-d]pyrimidin-6-yl)ethynyl)azetidin-1-yl)-2-(hydroxymethyl)piperidin-1-yl)prop-2-en-1-one]: the figures for the IC50 in experiment [1], in experiment [2] and in experiment [3] (6 h) were at most 10 nM, 10 to 1000 nM and 10 to 1000 nM, respectively.

Regarding `C=CC(=O)NCC(=O)N1C[C@@H]2[C@@H](C#Cc3c(-c4ccc(Oc5ccccc5)cc4)c4c(N)ncnc4n3C)[C@@H]2C1` [II-211, N-[2-[(1R,5S,6S)-6-[2-[4-amino-7-methyl-5-(4-phenoxyphenyl)-7H-pyrrolo[2,3-d]pyrimidin-6-yl]ethynyl]-3-azabicyclo[3.1.0]hexan-3-yl]-2-oxoethyl]prop-2-enamide], the half-inhibitory concentration (IC50) in experiment [1], in experiment [2] and in experiment [3] (6 h) was at most 10 nM each time.

As for `Cn1c(C#CC2CCCN(C(=O)/C=C/CN3CCOCC3)CC2)c(-c2ccc(Oc3ccccc3)cc2)c2c(N)ncnc21` (stereo not drawn) [II-181, (E)-1-(4-((4-amino-7-methyl-5-(4-phenoxyphenyl)-7H-pyrrolo[2,3-d]pyrimidin-6-yl)ethynyl)azepan-1-yl)-4-morpholinobut-2-en-1-one], the IC50 is 10 to 1000 nM in experiment [1], 1000 to 10000 nM in experiment [2] and 1000 to 10000 nM in experiment [3] (6 h).
